Assay results as given in the supplement of paper PMC10307832.

Assays:
Assay in all cases: relative viability (nuclei count vs DMSO), 5 days (fraction); higher = more cells survive
NCI-H1734 = test system: NCI-H1734
In short: (§1)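 Medians of duplicate plates are given as relative viability. That measure is the nuclei count in treated wells divided by the count in vehicle wells. Counts were taken on 4× images of lung cancer cell lines in 1536-well plates, 5 days after pin-tool dosing the day after seeding with one drug alone or a fixed anchor-drug dose plus five library-drug doses (not always all listed) in √10 steps.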

CAL-12T = test system: CAL-12T
In short: as §1

LK-2 = test system: LK-2
In short: as §1

NCI-H1650 = test system: NCI-H1650
In short: as §1

A-427 = test system: A-427
In short: as §1

UMC-11 = test system: UMC-11
In short: as §1

NCI-H1648 = test system: NCI-H1648
In short: as §1

NCI-H2009 = test system: NCI-H2009
In short: as §1

Row | SMILES | relative viability (NCI-H1734; first compound 0.08 µM) | relative viability (NCI-H1734; first compound 0.253 µM) | relative viability (NCI-H1734; first compound 0.8 µM) | relative viability (NCI-H1734; first compound 2.53 µM) | relative viability (CAL-12T; first compound 0.08 µM) | relative viability (CAL-12T; first compound 0.253 µM) | relative viability (CAL-12T; first compound 0.8 µM) | relative viability (CAL-12T; first compound 2.53 µM) | relative viability (LK-2; first compound 0.08 µM) | relative viability (LK-2; first compound 0.253 µM) | relative viability (LK-2; first compound 0.8 µM) | relative viability (LK-2; first compound 2.53 µM) | relative viability (NCI-H1650; first compound 0.08 µM) | relative viability (NCI-H1650; first compound 0.8 µM) | relative viability (NCI-H1650; first compound 2.53 µM) | relative viability (A-427; first compound 0.08 µM) | relative viability (A-427; first compound 0.253 µM) | relative viability (A-427; first compound 0.8 µM) | relative viability (A-427; first compound 2.53 µM) | relative viability (UMC-11; first compound 0.08 µM) | relative viability (UMC-11; first compound 0.253 µM) | relative viability (UMC-11; first compound 0.8 µM) | relative viability (UMC-11; first compound 2.53 µM) | relative viability (NCI-H1648; first compound 0.08 µM) | relative viability (NCI-H1648; first compound 0.253 µM) | relative viability (NCI-H1648; first compound 0.8 µM) | relative viability (NCI-H1648; first compound 2.53 µM) | relative viability (NCI-H2009; first compound 0.08 µM) | relative viability (NCI-H2009; first compound 0.253 µM) | relative viability (NCI-H2009; first compound 0.8 µM) | relative viability (NCI-H2009; first compound 2.53 µM) | relative viability (NCI-H1734; first compound 8 µM) | relative viability (CAL-12T; first compound 8 µM) | relative viability (LK-2; first compound 8 µM) | relative viability (NCI-H1650; first compound 0.253 µM) | relative viability (NCI-H1650; first compound 8 µM) | relative viability (A-427; first compound 8 µM) | relative viability (UMC-11; first compound 8 µM) | relative viability (NCI-H1648; first compound 8 µM) | relative viability (NCI-H2009; first compound 8 µM)
1 | COc1nc(C)cnc1NS(=O)(=O)c1cccnc1-c1ccc(-c2nnco2)cc1 [Zibotentan] + CC(=O)Nc1cccc(-n2c(=O)n(C3CC3)c(=O)c3c(Nc4ccc(I)cc4F)n(C)c(=O)c(C)c32)c1 [Trametinib] (partner 0.02 µM) | 0.721 | 0.705 | 0.647 | 0.733 | 0.34 | 0.303 | 0.349 | 0.337 | 0.881 | 0.793 | 0.83 | 0.703 | 0.533 | 0.563 | 0.557 | 0.813 | 0.72 | 0.845 | 0.83 | 0.617 | 0.665 | 0.741 | 0.779 | 0.49 | 0.529 | 0.442 | 0.604 | 0.273 | 0.258 | 0.266 | 0.278 |  |  |  |  |  |  |  |  | 
2 | COc1nc(C)cnc1NS(=O)(=O)c1cccnc1-c1ccc(-c2nnco2)cc1 [Zibotentan] + Nc1nc2[nH]cc(CCc3ccc(C(=O)N[C@@H](CCC(=O)O)C(=O)O)cc3)c2c(=O)[nH]1 [Pemetrexed] (partner 0.2 µM) | 0.404 | 0.423 | 0.396 | 0.44 | 1.28 | 1.06 | 1.23 | 1.16 | 0.299 | 0.252 | 0.302 | 0.208 | 0.364 | 0.387 | 0.402 | 1.18 | 1.01 | 0.95 | 1.07 | 0.671 | 0.727 | 0.742 | 0.859 | 0.791 | 0.686 | 0.532 | 0.635 | 1.03 | 1.01 | 1.01 | 1.03 |  |  |  |  |  |  |  |  | 
3 | O=c1cc(-c2cccc3c2Sc2ccccc2S3)oc(N2CCOCC2)c1 + CC(=O)Nc1cccc(-n2c(=O)n(C3CC3)c(=O)c3c(Nc4ccc(I)cc4F)n(C)c(=O)c(C)c32)c1 [Trametinib] (partner 0.02 µM) | 0.656 | 0.72 | 0.69 |  | 0.297 | 0.333 | 0.305 | 0.263 | 0.874 | 0.852 | 0.755 | 0.712 | 0.516 | 0.503 | 0.497 | 0.718 | 0.867 | 0.735 | 0.709 | 0.719 | 0.827 | 0.78 | 0.638 |  | 0.515 | 0.427 |  | 0.257 | 0.236 | 0.24 | 0.213 | 0.697 | 0.246 | 1.03 | 0.648 | 0.622 | 0.747 | 1.03 | 0.389 | 0.208
